In assay [1] the test system is PPARγ. Nature of the assay: Transactivation assay, PPRE luciferase reporter in COS-7 cells. The format is cell-based. The settings on record: tested against rosiglitazone, FIG. 4. The procedure: (§1) COS-7 were cultured in 6-well plates and co-transfected with either a luciferase reporter driven by 3 copies of a PPRE and expression vector for either PPARδ, PPARα or PPARγ together with a vector harboring cDNA for β-galactosidase, serving as a transfection control. To test whether FABP4 or FABP5 mediate activation of their cognate receptors PPARγ and PPARδ, respectively, cells were also co-transfected with a plasmid harboring sequence of either FABP4 or FABP5. 18 h post-transfection, cells were placed in a serum-free medium and treated with agonist/compound. 18 h. later, cells were lysed, luciferase activity was assayed (Promega, WI, USA) and corrected for transfection efficiency by the activity of β-galactosidase.
(§2) COS-7 were cultured in 6-well plates and co-transfected with either a luciferase reporter driven by 3 copies of a PPRE and expression vector for either PPARδ, PPARα or PPARγ together with a vector harboring cDNA for β-galactosidase, serving as a transfection control. 18 h. post-transfection, cells were placed in a serum-free medium and treated with agonist/compound. 18 h. later, cells were lysed, luciferase activity was assayed (Promega, WI, USA) and corrected for transfection efficiency by the activity of β-galactosidase.
Background: Reporter assays use an easily measured gene product as a stand-in for the process of interest.

The subject of assay [2] is PPARδ. The assay is described as above. It counts as cell-based. Conditions: compared to GW0742, FIG. 5. The procedure: as §1, §2
In assay [3] the test system is FABP5 together with PPARδ. In words: Transcriptional activation assay in cells overexpressing FABP5, with PPARδ activator GW0742. It counts as cell-based. The settings on record: together with GW0742, FIG. 8. Here is the method:
as §1

The subject of assay [4] is PPARδ targets PDPK1 and CD47 in TNBC cells MB-231. In words: Real-time PCR of PPARδ targets. It counts as cell-based. Conditions: MB-231, 1 μM, 6 hours. The procedure:
(§3) Cells were treated with a compound for 6 h. then lysed and RNA was extracted using Trizol, according to the manufacturer's instructions. cDNA was generated using GeneAmp RNA PCR (Applied Biosystems). qPCR was carried out using TaqMan chemistry and Assays-on-Demand probes (Applied Biosystems). 18s (4352930) rRNA was used for normalization. Relative expression was calculated as 2^−ΔΔCT.
(In general: Quantitative PCR measures a nucleic acid by following its amplification.)

Assay [5] relates to PPARδ targets PDPK1 and CD47 in TNBC cells MB-157. In words: Real-time PCR of PPARδ targets. The format is cell-based, human. The settings on record: MB-157, 1 μM, 6 hours. The procedure:
as §3

Assay [6] deals with BT-549 cells. Nature of the assay: Proliferation assay, combination with chemotherapy. It counts as cell-based, human. The settings on record: B4 1 μM with doxorubicin 0 to 100 nM. The procedure: 2000 cells were plated in each well of 96-well plate. The next day cells were treated with compounds and incubated in Incucyte for 4 days. Images taken every 4 hours for the duration of the time were analyzed to calculate percentage of confluency in response to the treatments. Growth inhibition was calculated as 1−(percentage of viable cells out of untreated cells).

For assay [7], the system named is 3T3-L1 adipocytes. Nature of the assay: Lipid uptake during adipocyte maturation, Nile Red. It counts as cell-based, mouse. The settings on record: B4 from day 6, stained day 12. The procedure:
(§4) 3) 3T3-L1: Mouse 3T3-L1 cells were differentiated in culture according to ATCC protocol to become mature adipocytes. At day 6 of the differentiation, compound treatment started. Cells were stained by Nile Red on day and color intensity in each cell was measured relative to Dapi staining. Lipolysis was measured by measuring glycerol levels using lipolysis kit (Cayman, USA) according to the manufacturer manual.
(§5) 1) 3T3-L1: Mouse 3T3-L1 cells were differentiated in culture according to ATCC protocol to become mature adipocytes. At day 6 of the differentiation, compound treatment started. Cells were stained by Nile Red on day and color intensity in each cell was measured relative to Dapi staining. Lipolysis was measured by measuring glycerol levels using lipolysis kit (Cayman, USA) according to the manufacturer manual.

Assay [8] relates to 3T3-L1 adipocytes. Nature of the assay: Lipolysis (glycerol release) in mature adipocytes. It counts as cell-based, mouse. Here is the method:
as §4, §5

For assay [9], the system named is RAW264.7 murine macrophage cells. In words: LPS-stimulated proinflammatory cytokine expression by QPCR. The format is cell-based. The settings on record: B4 0 to 5 μM, then LPS 100 ng/ml. The procedure: as §3
FIG. 33, FIG. 34, and FIG. 35 show the anti-inflammatory effects of compound B4 on RAW264.7 murine macrophage cells.

In assay [10] the test system is MB-231 tumors. Nature of the assay: TNBC xenograft experiment. The format is in vivo. Conditions: NSG mice, B4 20 or 40 mg/kg IP 5 times a week, after 14 days. The procedure:
Eight-week-old NSG […] females were injected subcutaneously into the right flank with 5×10^6 MB-231 cells 1:1 with matrigel. Treatments started the day after cells injections 5 days a week. Mice were treated with either vehicle (5% DMSO, 15%-HPCBD (PH 9.0) in water), 20 mg/kg, or 40 mg/kg B4 dissolved in vehicle. Tumor size was assessed twice per week using a digital caliper. Tumor volumes were determined by measuring the length (l) and the width (w) of the tumor and calculating the volume (V=lw^2/2). Mice were scarified 14 days after injection. Statistical significance between the control and treated mice in both experiments was evaluated using a Student's t test. Mouse experiments were conducted after approval by the institutional animal care and use committee at Case Western Reserve University.
TNBC xenograft model was used to test the efficacy of B4 in suppressing growth on tumors in vivo. 5×10^6 MB-231 cells were subcutaneously injected into the right flank of NSG mice. B4 (20, or 40 mg/kg) or a vehicle were IP injected 5 times a week and tumor growth was monitored.

The results in this text go back to patent publication US12570603B2, “FABP4/5 inhibitors, methods of use and methods of making” (Novius Therapeutics, LLC, priority 2021, dated 2026).

As to `CC(C)Oc1cc(NC(=O)CSCC(=O)O)c(Cl)cc1Cl` [Compound B4, 2-((2-((2,4-dichloro-5-isopropoxyphenyl)amino)-2-oxoethyl)thio)acetic acid], the “activation of transcription by PPARγ” value in [1] is “did not activate transcription”. Moreover, the “activation of transcription by PPARδ” value in [2] is listed as “did not active transcription”. Further, the “inhibition of PPARδ activity in cells overexpressing FABP5” value in [3] was “inhibit activity of the nuclear receptors only in cells that express the binding proteins”. Further, the “levels of endogenous PPARδ targets PDPK1 and CD47” value in assay [4] is reported as “significantly lower”. The “levels of endogenous PPARδ targets PDPK1 and CD47” value in [5] is given as “significantly lower”. The sensitization to chemotherapy entry in [6] was “sensitized to chemotherapy”. Further, the “lipid droplets in adipocytes (Nile Red)” value in assay [7] was “fewer LD within the cells”. In addition, in [8] (basal), the “basal lipolysis (glycerol release)” value was “inhibited basal lipolysis”. In [8] (isoproterenol-stimulated, relative to basal), the “isoproterenol-stimulated lipolysis (glycerol release)” value is “more potent”. In assay [9], the “IL-1β mRNA level” value was “lower in the treated cells”, the “IL-6 mRNA level” value is recorded as “lower in the treated cells” and the “TNFα mRNA level” value is “lower in the treated cells”. Further, the “growth of 231 tumors” value in assay [10] is on record as “almost completely abolished growth”.
